Assay [1] has as its system CD69 production by B lymphocytes in human whole blood activated with goat F(ab')2 anti-human IgM. Nature of the assay: CD69 Whole Blood Assay (Example 907). The class given is cell-based. The settings on record: Lymphocyte, read-out: CD69 Hu Blood FACS (IC70). The text has this:
A CD69 Whole Blood Assay can be conducted on Formula I compounds to determine the ability of compounds to inhibit the production of CD69 by B lymphocytes in human whole blood activated by crosslinking surface IgM with goat F(ab′)2 anti-human IgM (Example 907). CD69 is a type II C-type lectin involved in lymphocyte migration and cytokine secretion. CD69 expression represents one of the earliest available indicators of leukocyte activation and its rapid induction occurs through transcriptional activation (Vazquez et al (2009) Jour. of Immunology Published Oct. 19, 2009, doi: 10.4049/jimmunol.0900839). Concentration-dependent inhibition of antigen receptor stimulation by selective Btk inhibitors induces cell surface expression of the lymphocyte activation marker CD69 (Honigberg et al (2010) Proc. Natl. Acad. Sci. 107(29):13075-13080). Thus, CD69 inhibition by selective Btk inhibitors may be correlated with therapeutic efficacy of certain B-cell disorders.
Human blood is obtained from healthy volunteers, with the following restrictions: 1 week drug-free, non-smokers. Blood (approximately 20 mls to test 8 compounds) is collected by venipuncture into Vacutainer® (Becton, Dickinson and Co.) tubes with sodium heparin.
Solutions of Formula I compounds at 10 mM in DMSO are diluted 1:10 in 100% DMSO, then are diluted by three-fold serial dilutions in 100% DMSO for a ten point dose-response curve. The compounds are further diluted 1:10 in PBS and then an aliquot of 5.5 μl of each compound is added in duplicate to a 2 ml 96-well plate; 5.5 μl of 10% DMSO in PBS is added as control and no-stimulus wells. Human whole blood—HWB (100 μl) is added to each well. After mixing the plates are incubated at 37° C., 5% CO2, 100% humidity for 30 minutes. Goat F(ab′)2 anti-human IgM (10 μl of a 500 μg/ml solution, 50 μg/ml final) is added to each well (except the no-stimulus wells) with mixing and the plates are incubated for an additional 20 hours. At the end of the 20 hour incubation, samples are incubated with fluorescent labeled antibodies for 30 minutes, at 37° C., 5% CO2, 100% humidity. Include induced control, unstained and single stains for compensation adjustments and initial voltage settings. Samples are then lysed with PharM Lyse™ (BD Biosciences Pharmingen) according to the manufacturer's instructions. Samples are then transferred to a 96 well plate suitable to be run on the BD Biosciences HTS 96 well system on the LSRII machine. Data acquired and Mean Fluorescence Intensity values were obtained using BD Biosciences DIVA Software. Results are initially analyzed by FACS analysis software (Flow Jo).

Assay [2] deals with T1, full length human wildtype Btk (Homo sapiens, UniProt Q06187).
T1 construct: V5 (C); 6xHis (C); made in house; host or cells: Sf9 cells (baculovirus, pFastBac)
T1 sequence (Q06187 whole entry): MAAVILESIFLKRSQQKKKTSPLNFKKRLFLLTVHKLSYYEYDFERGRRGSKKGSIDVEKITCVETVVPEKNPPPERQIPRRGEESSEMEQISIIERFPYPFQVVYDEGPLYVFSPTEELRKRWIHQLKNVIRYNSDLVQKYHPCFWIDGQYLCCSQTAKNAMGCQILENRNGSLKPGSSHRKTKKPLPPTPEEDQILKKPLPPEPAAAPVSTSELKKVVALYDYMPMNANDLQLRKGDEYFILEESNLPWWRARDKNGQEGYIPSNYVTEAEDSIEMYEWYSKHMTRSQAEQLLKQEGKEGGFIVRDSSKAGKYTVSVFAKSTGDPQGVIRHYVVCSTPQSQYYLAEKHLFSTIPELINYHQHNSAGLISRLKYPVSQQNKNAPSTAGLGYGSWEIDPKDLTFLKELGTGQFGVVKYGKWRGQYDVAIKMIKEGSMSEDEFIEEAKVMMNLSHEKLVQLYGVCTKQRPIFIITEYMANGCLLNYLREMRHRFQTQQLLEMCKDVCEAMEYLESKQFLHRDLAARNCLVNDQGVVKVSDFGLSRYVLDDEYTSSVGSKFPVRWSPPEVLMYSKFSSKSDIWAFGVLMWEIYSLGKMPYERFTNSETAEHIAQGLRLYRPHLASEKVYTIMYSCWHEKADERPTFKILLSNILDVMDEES
Nature of the assay: Biochemical Btk Kinase Assay (Example 901). To be noted: read-out: BTK LC3K (Ki). As for the experimental part:
Formula I compounds were tested by a standard biochemical Btk, Kinase Assay (Example 901). A generalized procedure for a standard biochemical Btk, Kinase Assay that can be used to test Formula I compounds is as follows. A master mix minus Btk enzyme is prepared containing 1× Cell Signaling kinase buffer (25 mM Tris-HCl, pH 7.5, 5 mM beta-glycerophosphate, 2 mM dithiothreitol, 0.1 mM Na3VO4, 10 mM MgCl2), 0.5 μM Promega PTK Biotinylated peptide substrate 2, and 0.01% BSA. A master mix plus Btk enzyme is prepared containing 1× Cell Signaling kinase buffer, 0.5 μM (micromolar) PTK Biotinylated peptide substrate 2, 0.01% BSA, and 100 ng/well (0.06 mU/well) Btk enzyme. Btk enzyme is prepared as follows: full length human wildtype Btk (accession number NM-000061) with a C-terminal V5 and 6×His tag was subcloned into pFastBac® vector (Invitrogen/Life Technologies) for making baculovirus carrying this epitope-tagged Btk. Generation of baculovirus is done based on Invitrogen's instructions detailed in its published protocol “Bac-to-Bac Baculovirus Expression Systems” (Invitrogen/Life Technologies, Cat. Nos. 10359-016 and 10608-016). Passage 3 virus is used to infect Sf9 cells to overexpress the recombinant Btk protein. The Btk protein is then purified to homogeneity using Ni-NTA column. The purity of the final protein preparation is greater than 95% based on the sensitive Sypro-Ruby staining. A solution of 200 μM ATP is prepared in water and adjusted to pH 7.4 with 1N NaOH. A quantity of 1.25 μL (microliter) of compounds in 5% DMSO is transferred to a 96-well 2 area Costar polystyrene plate. Compounds are tested singly and with an 11-point dose-responsive curve (starting concentration is 10 μM; 1:2 dilution). A quantity of 18.75 μL of master mix minus enzyme (as a negative control) and master mix plus enzyme is transferred to appropriate wells in 96-well 2 area costar polystyrene plate. 5 μL of 200 μM ATP is added to that mixture in the 96-well 2 area Costar polystyrene plate for final ATP concentration of 40 μM. The reaction is allowed to incubate for 1 hour at room temperature. The reaction is stopped with Perkin Elmer 1× detection buffer containing 30 mM EDTA, 20 nM SA-APC, and 1 nM PT66 Ab. The plate is read using time-resolved fluorescence with a Perkin Elmer Envision using excitation filter 330 nm, emission filter 665 nm, and 2nd emission filter 615 nm. IC50 values are subsequently calculated. Alternatively, the Lanthascreen assay can be used to evaluate Btk activity through quantification of its phosphorylated peptide product. The FRET (Fluorescence Resonance Energy Transfer) that occurs between the fluorescein on the peptide product and the terbium on the detection antibody decreases with the addition of inhibitors of Btk that reduce the phosphorylation of the peptide. In a final reaction volume of 25 μL (microliters), Btk (h) (0.1 ng/25 μl reaction) is incubated with 50 mM Hepes pH 7.5, 10 mM MgCl2, 2 mM MnCl2, 2 mM DTT, 0.2 mM NaVO4, 0.01% BSA, and 0.4 uM fluorescein poly-GAT. The reaction is initiated by the addition of ATP to 25 μM (micromolar) the Km of ATP. After incubation for 60 minutes at room temperature, the reaction is stopped by the addition of a final concentration of 2 nM Tb-PY20 detection antibody in 60 mM EDTA for 30 minutes at room temperature. Detection is determined on a Perkin Elmer Envision with 340 nm excitation and emission at 495 nm and 520 nm. Exemplary Btk inhibition […] values are in Table 1.

The mark [3] stands for this setting: human whole blood, anti-IgM stimulated, 20 hour incubation, CD20 positive cells, FACS.

Like-named read-outs stand apart in the source and are kept apart here.

Here are results for 13 compounds from patent US20190194209A1, “PYRAZOLE CARBOXAMIDE COMPOUNDS AND METHODS OF USE” (Genentech, Inc., priority 2014, published 2019).

What is called IC70 is the concentration needed for an effect of 70%. By Ki is commonly meant a measure of affinity in units of concentration, obtained from inhibition or displacement. Regarding `CC1(C)Cc2cc3n(c2C1)CCN(c1cccc(-n2cc(C(N)=O)c(Nc4ccccn4)n2)c1CO)C3=O` [Example 102, 1-[3-(7,7-dimethyl-4-oxo-1,2,6,8-tetrahydrocyclopenta[3,4]pyrrolo[3,5-b]pyrazin-3-yl)-2-(hydroxymethyl)phenyl]-3-(2-pyridylamino)pyrazole-4-carboxamide], the IC70 in assay [1] (setting [3]) was 0.166 µM. In addition, the Ki in assay [2] stood at 1.01 nM. As to `CCC(=O)Nc1nn(-c2ccnc(N3CCn4c(cc5c4CC(C)(C)C5)C3=O)c2CO)cc1C(N)=O` [Example 123, 1-[2-(7,7-dimethyl-4-oxo-1,2,6,8-tetrahydrocyclopenta[3,4]pyrrolo[3,5-b]pyrazin-3-yl)-3-(hydroxymethyl)-4-pyridyl]-3-(propanoylamino)pyrazole-4-carboxamide], the IC70 in assay [1] (setting [3]) was 0.685 µM. Moreover, the Ki in assay [2] came to 32.1 nM. For `CC1(C)Cc2cc3n(c2C1)CCN(c1nccc(-n2cc(C(N)=O)c(Nc4ccccn4)n2)c1CO)C3=O` [Example 103, 1-[2-(7,7-dimethyl-4-oxo-1,2,6,8-tetrahydrocyclopenta[3,4]pyrrole[3,5-b]pyrazin-3-yl)-3-(hydroxymethyl)-4-pyridyl]-3-(2-pyridylamino)pyrazole-4-carboxamide], in that order: 0.127 µM and 0.565 nM.

Regarding `CC1(C)Cc2cc3n(c2C1)CCN(c1cccc(-n2cc(C(N)=O)c(Nc4ccncn4)n2)c1CO)C3=O` [Example 104, 1-[3-(7,7-dimethyl-4-oxo-1,2,6,8-tetrahydrocyclopenta[3,4]pyrrole[3,5-b]pyrazin-3-yl)-2-(hydroxymethyl)phenyl]-3-(pyrimidin-4-ylamino)pyrazole-4-carboxamide], in assay [1] (setting [3]), the IC70 was 0.0362 µM. For the same compound, the Ki in assay [2] was 0.249 nM. For `CC1(C)Cc2cc3n(c2C1)CCN(c1nccc(-n2cc(C(N)=O)c(N)n2)c1CO)C3=O` [Example 117, 3-amino-1-[2-(7,7-dimethyl-4-oxo-1,2,6,8-tetrahydrocyclopenta[3,4]pyrrolo[3,5-b]pyrazin-3-yl)-3-(hydroxymethyl)-4-pyridyl]pyrazole-4-carboxamide], the IC70 in assay [1] (Homo sapiens, 20 h) came out at 0.494 µM. Moreover, in assay [2], the Ki came out at 2.45 nM. `CC(C)(C)c1cc(F)c2c(=O)n(-c3nccc(-n4cc(C(N)=O)c(-c5cnn(C(F)F)c5)n4)c3CO)ncc2c1` [Example 121, 1-[2-(6-tert-butyl-8-fluoro-1-oxo-phthalazin-2-yl)-3-(hydroxymethyl)-4-pyridyl]-3-[1-(difluoromethyl)pyrazol-4-yl]pyrazole-4-carboxamide]: the IC70 in assay [1] (setting [3]) is 1.4 µM. Besides, the Ki in assay [2] was determined as 1.15 nM. For `Cn1cc(-c2nn(-c3cc(F)cc(-n4ncc5cc(C(C)(C)C)cc(F)c5c4=O)c3CO)cc2C(N)=O)cn1` [Example 127, 1-[3-(6-tert-butyl-8-fluoro-1-oxo-phthalazin-2-yl)-5-fluoro-2-(hydroxymethyl)phenyl]-3-(1-methylpyrazol-4-yl)pyrazole-4-carboxamide], in that order: 5 µM and 1.3 nM. For `CC1(C)Cc2cc3n(c2C1)CCN(c1nccc(-n2cc(C(N)=O)c(Nc4ccccc4)n2)c1CO)C3=O` [Example 101, 3-anilino-1-[2-(7,7-dimethyl-4-oxo-1,2,6,8-tetrahydrocyclopenta[3,4]pyrrolo[3,5-b]pyrazin-3-yl)-3-(hydroxymethyl)-4-pyridyl]pyrazole-4-carboxamide], in that order: 0.0369 µM and 2.4 nM. For `CC1(C)Cc2cc3n(c2C1)CCN(c1nccc(-n2nc(C(N)=O)c4ccccc42)c1CO)C3=O` [Example 108, 1-[2-(7,7-dimethyl-4-oxo-1,2,6,8-tetrahydrocyclopenta[3,4]pyrrolo[3,5-b]pyrazin-3-yl)-3-(hydroxymethyl)-4-pyridyl]indazole-3-carboxamide], in that order: 0.726 µM and 1.83 nM. Regarding `CC(C)(C)c1cc(F)c2c(=O)n(-c3nccc(-n4cc(C(N)=O)c(Nc5ccc(Cl)cn5)n4)c3CO)ncc2c1` [Example 116, 1-[2-(6-tert-butyl-8-fluoro-1-oxo-phthalazin-2-yl)-3-(hydroxymethyl)-4-pyridyl]-3-[(5-chloro-2-pyridyl)amino]pyrazole-4-carboxamide], the IC70 in assay [1] (setting [3]) was found to be 0.311 µM. Also, the Ki in assay [2] was determined as 0.403 nM. For `CC1(C)Cc2cc3n(c2C1)CCN(c1nccc(-n2cc(NC(=O)C4CC4)c(C(N)=O)n2)c1CO)C3=O` [Example 109, 4-(cyclopropanecarbonylamino)-1-[2-(7,7-dimethyl-4-oxo-1,2,6,8-tetrahydrocyclopenta[3,4]pyrrolo[3,5-b]pyrazin-3-yl)-3-(hydroxymethyl)-4-pyridyl]pyrazole-3-carboxamide], the IC70 in assay [1] (setting [3]) came to 0.0474 µM. Moreover, the Ki in assay [2] was 0.924 nM. As to `Cc1nn(C)cc1-c1nn(-c2ccnc(-n3ncc4cc(C(C)(C)C)cc(F)c4c3=O)c2CO)cc1C(N)=O` [Example 122, 1-[2-(6-tert-butyl-8-fluoro-1-oxo-phthalazin-2-yl)-3-(hydroxymethyl)-4-pyridyl]-3-(1,3-dimethylpyrazol-4-yl)pyrazole-4-carboxamide], the IC70 in assay [1] (setting [3]) worked out at 3.3 µM. For the same compound, the Ki in assay [2] amounted to 8.6 nM.

Turning to `CN1CCN(C(=O)c2ccc(-c3nn(-c4ccnc(-n5ncc6cc(C(C)(C)C)cc(F)c6c5=O)c4CO)cc3C(N)=O)cc2)CC1` [Example 131, 1-[2-(6-tert-butyl-8-fluoro-1-oxo-phthalazin-2-yl)-3-(hydroxymethyl)-4-pyridyl]-3-[4-(4-methylpiperazine-1-carbonyl)phenyl]pyrazole-4-carboxamide], in assay [2], the Ki stood at 143 nM.
